Laboratory results taken from ChEMBL document CHEMBL5096227, “Discovery of Ervogastat (PF-06865571): A Potent and Selective Inhibitor of Diacylglycerol Acyltransferase 2 for the Treatment of Non-alcoholic Steatohepatitis” (J Med Chem, 2022).
pIC50: −log10 of the molar value.

Legend:
[1] = Plasma protein binding in human assessed as unbound fraction ratio at 2 uM; format: ADME, cell-free
[2] = target: T1, Cytochrome P450 1A2 (Homo sapiens, UniProt P05177); test: Reversible inhibition of CYP1A2 in pooled human liver microsomes using […] as substrate incubated for 20 mins in presence of NADPH by HPLC-MS/MS analysis; format: ADME, Microsome
T1 sequence (P05177 whole entry): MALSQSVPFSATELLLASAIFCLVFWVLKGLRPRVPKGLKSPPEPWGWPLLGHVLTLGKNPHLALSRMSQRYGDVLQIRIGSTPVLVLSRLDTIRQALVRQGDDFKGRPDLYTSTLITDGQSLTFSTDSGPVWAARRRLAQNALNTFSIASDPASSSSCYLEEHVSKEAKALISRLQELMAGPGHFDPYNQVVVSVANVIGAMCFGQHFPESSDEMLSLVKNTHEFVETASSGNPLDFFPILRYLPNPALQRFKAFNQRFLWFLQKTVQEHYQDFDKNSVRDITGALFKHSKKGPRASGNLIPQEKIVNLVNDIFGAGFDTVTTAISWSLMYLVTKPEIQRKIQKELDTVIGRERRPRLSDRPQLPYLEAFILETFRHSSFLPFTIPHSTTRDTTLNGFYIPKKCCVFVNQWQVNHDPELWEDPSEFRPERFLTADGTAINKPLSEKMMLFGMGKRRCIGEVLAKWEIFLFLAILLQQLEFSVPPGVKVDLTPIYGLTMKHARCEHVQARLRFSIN

[3] = target: CYP3A4/5 (Homo sapiens, UniProt P08684+P20815); test: Reversible inhibition of CYP3A4/5 in pooled human liver microsomes; format: ADME, Microsome
[4] = target: T2, Cytochrome P450 2B6 (Homo sapiens, UniProt P20813); test: Reversible inhibition of CYP2B6 in pooled human liver microsomes; format: ADME, Microsome
T2 sequence (P20813 whole entry): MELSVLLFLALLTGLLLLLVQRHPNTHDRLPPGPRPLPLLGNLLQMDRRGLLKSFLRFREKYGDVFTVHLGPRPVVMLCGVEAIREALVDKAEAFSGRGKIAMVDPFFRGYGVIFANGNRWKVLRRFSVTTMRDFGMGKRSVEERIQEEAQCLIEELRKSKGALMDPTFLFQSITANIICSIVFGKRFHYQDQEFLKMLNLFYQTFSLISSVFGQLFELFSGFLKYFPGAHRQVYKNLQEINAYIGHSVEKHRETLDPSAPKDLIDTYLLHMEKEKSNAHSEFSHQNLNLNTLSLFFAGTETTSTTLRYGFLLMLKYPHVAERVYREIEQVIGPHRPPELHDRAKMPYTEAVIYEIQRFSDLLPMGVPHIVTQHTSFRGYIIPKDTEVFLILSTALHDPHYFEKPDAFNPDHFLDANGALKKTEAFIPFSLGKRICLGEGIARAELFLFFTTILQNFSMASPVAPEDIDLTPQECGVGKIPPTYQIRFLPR

[5] = target: Cytochrome P450 2C9 (Homo sapiens, UniProt P11712); test: Reversible inhibition of CYP2C9 in pooled human liver microsomes using 4-Hydroxydiclofenac as substrate incubated for 10 mins in presence of NADPH by HPLC-MS/MS analysis; format: ADME, Microsome
Cytochrome P450 2C9, sequence (P11712 whole entry): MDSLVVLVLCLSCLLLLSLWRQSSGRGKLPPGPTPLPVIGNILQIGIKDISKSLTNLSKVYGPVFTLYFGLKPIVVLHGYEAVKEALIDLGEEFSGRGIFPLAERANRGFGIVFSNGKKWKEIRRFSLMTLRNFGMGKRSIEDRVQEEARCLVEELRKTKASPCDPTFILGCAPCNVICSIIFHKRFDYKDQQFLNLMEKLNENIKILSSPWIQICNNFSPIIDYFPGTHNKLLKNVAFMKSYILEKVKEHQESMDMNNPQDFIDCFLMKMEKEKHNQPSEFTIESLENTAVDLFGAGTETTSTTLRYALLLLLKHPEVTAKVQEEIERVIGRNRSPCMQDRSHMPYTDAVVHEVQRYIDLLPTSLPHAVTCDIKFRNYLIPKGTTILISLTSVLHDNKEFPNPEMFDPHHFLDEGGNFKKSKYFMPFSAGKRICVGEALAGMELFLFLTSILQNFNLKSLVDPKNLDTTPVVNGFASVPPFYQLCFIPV

[6] = target: Cytochrome P450 2C19 (Homo sapiens, UniProt P33261); test: Reversible inhibition of CYP2C19 in pooled human liver microsomes using 4-Hydroxymephenytoin as substrate incubated for 20 mins in presence of NADPH by HPLC-MS/MS analysis; format: ADME, Microsome
Cytochrome P450 2C19, sequence (P33261 whole entry): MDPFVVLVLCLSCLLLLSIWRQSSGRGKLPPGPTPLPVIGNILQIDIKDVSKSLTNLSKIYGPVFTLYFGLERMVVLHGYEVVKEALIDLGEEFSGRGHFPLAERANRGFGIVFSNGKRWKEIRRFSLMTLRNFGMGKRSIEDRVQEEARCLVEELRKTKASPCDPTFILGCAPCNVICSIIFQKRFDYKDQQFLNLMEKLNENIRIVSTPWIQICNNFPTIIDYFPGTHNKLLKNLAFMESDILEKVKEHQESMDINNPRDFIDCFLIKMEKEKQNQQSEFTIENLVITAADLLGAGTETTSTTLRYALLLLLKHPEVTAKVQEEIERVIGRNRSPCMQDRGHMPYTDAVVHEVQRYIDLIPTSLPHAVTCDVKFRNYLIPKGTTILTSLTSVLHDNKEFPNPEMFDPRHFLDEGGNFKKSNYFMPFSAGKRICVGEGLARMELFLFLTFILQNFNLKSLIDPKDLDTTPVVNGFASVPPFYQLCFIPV

[7] = Drug metabolism in cryopreserved human hepatocytes assessed as O-deethylation mediated pyridin-3-ol metabolite formation at 10 uM measured for 240 mins by HPLC-UV-MS analysis; format: ADME, cell-based, Hepatocyte; settings: 4 h
[8] = target: T3, Diacylglycerol O-acyltransferase 2 (Rattus norvegicus, UniProt Q5FVP8); test: Inhibition of rat DGAT2 using [1-14C]decanoyl-CoA and 1,2-didecanoyl-sn-glycerol as substrates assessed as incorporation of [1-14C]decanoyl into triacylglycerol preincubated for 120 mins followed by substrate addition and measured after 40 mins by scintillation counting method
T3 sequence (Q5FVP8 whole entry): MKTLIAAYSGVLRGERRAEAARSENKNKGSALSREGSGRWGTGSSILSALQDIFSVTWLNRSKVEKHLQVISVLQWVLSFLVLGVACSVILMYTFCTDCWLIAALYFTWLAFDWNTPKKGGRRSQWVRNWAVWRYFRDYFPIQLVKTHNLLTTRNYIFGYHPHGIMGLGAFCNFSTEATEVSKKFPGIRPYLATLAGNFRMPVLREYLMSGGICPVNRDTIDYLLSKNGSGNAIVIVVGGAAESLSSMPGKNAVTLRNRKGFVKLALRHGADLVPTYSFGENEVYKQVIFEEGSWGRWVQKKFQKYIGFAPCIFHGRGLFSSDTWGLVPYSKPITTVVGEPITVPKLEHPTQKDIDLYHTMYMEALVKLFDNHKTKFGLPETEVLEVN

[9] = Inhibition of [14C]-glycerol incorporation into triglycerides in human primary hepatocytes; format: functional, cell-based; settings: hepatocyte
[10] = Inhibition of [14C]-glycerol incorporation into triglycerides in rat primary hepatocytes; format: functional, cell-based; settings: hepatocyte
[11] = Plasma clearance in Wistar Han rat at 1 mg/kg, iv; format: ADME, organism-based
[12] = Half life in Wistar Han rat at 1 mg/kg, iv; format: ADME, organism-based; settings: in vivo
[13] = Volume of distribution at steady state in Wistar Han rat at 1 mg/kg, iv; format: ADME, organism-based; settings: in vivo, read-out: Vdss
[14] = Volume of distribution at steady state in cynomolgus monkey at 1 mg/kg, iv; format: ADME, organism-based, Macaca fascicularis; settings: in vivo, read-out: Vdss
[15] = Plasma protein binding in rat assessed as unbound fraction ratio at 2 uM; format: ADME, cell-free
[16] = Drug metabolism in monkey hepatocytes assessed as oxidation of THF ring mediated metabolite formation; format: ADME, cell-based, Macaca mulatta, Hepatocyte; settings: rhesus monkey
[17] = Drug metabolism in monkey hepatocytes assessed as hydrolytic cleavage of amide bond mediated metabolite formation; format: ADME, cell-based, Macaca mulatta, Hepatocyte; settings: rhesus monkey
[18] = In vivo inhibition of DGAT2 in sucrose diet fed Sprague-Dawley rat assessed as reduction in triglyceride level at 90 mg/kg, po administered as single dose and measured after 2 hrs relative to control; format: functional; parameters: scale not given: the % may be the effect or the level left
[19] = system: Rattus norvegicus; test: In vivo inhibition of DGAT2 in high fat/high cholesterol diet fed Sprague-Dawley rat model assessed as reduction in plasma triglyceride level administered orally twice daily for 7 days starting from day 14 post diet and measured 2 hrs post last dose; format: functional, organism-based; settings: dose 0.3-90 mg/kg, route po, time 7.0 day, DDE = dose-dependent effect
[20] = system: Rattus norvegicus; test: In vivo inhibition of DGAT2 in high fat/high cholesterol diet fed Sprague-Dawley rat model assessed as reduction in hepatic triglyceride level administered orally twice daily for 7 days starting from day 14 post diet and measured 2 hrs post last dose; format: functional, organism-based; settings: dose 0.3-90 mg/kg, route po, time 7.0 day, DDE = dose-dependent effect
[21] = target: Voltage-gated inwardly rectifying potassium channel KCNH2 (Homo sapiens, UniProt Q12809); test: Inhibition of hERG by patch-clamp method; format: toxicity
Voltage-gated inwardly rectifying potassium channel KCNH2, sequence (Q12809 whole entry): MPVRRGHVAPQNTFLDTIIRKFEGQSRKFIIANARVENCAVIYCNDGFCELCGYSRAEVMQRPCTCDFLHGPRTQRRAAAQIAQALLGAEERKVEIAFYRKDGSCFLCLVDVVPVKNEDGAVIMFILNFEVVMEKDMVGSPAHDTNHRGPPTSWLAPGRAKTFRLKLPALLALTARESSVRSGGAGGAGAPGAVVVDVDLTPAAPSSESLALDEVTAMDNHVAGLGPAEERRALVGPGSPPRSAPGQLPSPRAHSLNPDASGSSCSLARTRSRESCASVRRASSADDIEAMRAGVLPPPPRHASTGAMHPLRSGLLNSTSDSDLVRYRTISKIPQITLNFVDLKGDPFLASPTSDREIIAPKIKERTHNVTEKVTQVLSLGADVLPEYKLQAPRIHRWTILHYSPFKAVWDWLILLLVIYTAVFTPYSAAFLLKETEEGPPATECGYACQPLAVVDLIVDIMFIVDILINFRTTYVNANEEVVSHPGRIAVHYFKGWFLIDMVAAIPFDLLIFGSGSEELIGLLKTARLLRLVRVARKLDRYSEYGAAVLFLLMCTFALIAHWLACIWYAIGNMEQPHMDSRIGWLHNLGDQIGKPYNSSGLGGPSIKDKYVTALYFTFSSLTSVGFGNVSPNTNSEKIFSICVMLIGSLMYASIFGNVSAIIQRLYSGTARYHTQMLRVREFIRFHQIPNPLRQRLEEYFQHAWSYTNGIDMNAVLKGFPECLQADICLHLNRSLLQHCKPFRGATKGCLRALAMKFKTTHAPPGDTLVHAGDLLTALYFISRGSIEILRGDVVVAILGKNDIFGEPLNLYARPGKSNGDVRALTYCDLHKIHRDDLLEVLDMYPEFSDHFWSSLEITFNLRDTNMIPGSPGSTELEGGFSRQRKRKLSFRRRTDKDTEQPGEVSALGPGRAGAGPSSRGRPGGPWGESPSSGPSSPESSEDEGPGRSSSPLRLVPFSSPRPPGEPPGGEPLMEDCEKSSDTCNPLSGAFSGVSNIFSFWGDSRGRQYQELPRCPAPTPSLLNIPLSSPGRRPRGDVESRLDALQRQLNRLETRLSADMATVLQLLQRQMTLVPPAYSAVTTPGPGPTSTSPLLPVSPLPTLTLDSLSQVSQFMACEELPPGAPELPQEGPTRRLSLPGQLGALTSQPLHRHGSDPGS

[22] = Genotoxicity in human TK6 cells by micronucleus test; format: toxicity, cell-based
[23] = Toxicity in rat assessed as development-limiting toxicity; settings: in vivo
[24] = Cardiotoxicity in non-human primates assessed as development-limiting toxicity
[25] = physchem; settings: buffer, pH 7.4
Description: Lipophilicity, logD of compound at pH 7.4 by shake flask method

`CCOc1cccnc1Oc1cncc(-c2ncc(C(=O)N[C@H]3CCOC3)cn2)c1` [PF-06865571] showed a Ratio [1] of 0.353, a pIC50 [2] of less than 4.00 and a pIC50 [3] of less than 4.00. It also gave a pIC50 [4] of less than 4.00, a pIC50 [5] of 5.06 and a pIC50 [6] of 4.24. The Drug metabolism [7] was “Metabolite_Detected”, the pIC50 [8] was 6.08 and the pIC50 [9] was 8.55. For the same compound, the pIC50 [10] was 8.22, the clearance [11] was 61 mL/min/kg and the half-life [12] was 18 min. The Vd [13] was 0.9 L/kg, the Vd [14] was 0.7 L/kg and the Ratio [15] was 0.213. For the same compound, the Drug metabolism [16] was “Metabolite_Detected”, the Drug metabolism [17] was “Metabolite_Detected” and the Activity [18] was 76%. The Activity [19] was “Dde”, the Activity [20] was “Dde” and the pIC50 [21] was less than 4.00. For the same compound, the Activity [22] was “Non-Toxic”, the Activity [23] was “Non-Toxic” and the Activity [24] was “Non-Toxic”. It also gave a logD [25] of 1.9.
